Laboratory results reported in PubChem BioAssay (NCI).
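Cultured in 96-well plates, cells were exposed to test compound for 48 hours across five concentrations. At the GI50, growth is halved. TGI: total growth inhibition.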

Columns and labels:
Assay in all cases: inhibition of tumour cell growth, NCI panel, 48 h
CAKI-1 renal = test system: CAKI-1 renal
NCI-H522 lung = test system: NCI-H522 lung
MCF7 breast = test system: MCF7 breast
SK-MEL-5 melanoma = test system: SK-MEL-5 melanoma
SR leukemia = test system: SR leukemia
SK-MEL-28 melanoma = test system: SK-MEL-28 melanoma
DU-145 prostate = test system: DU-145 prostate
SW-620 colon = test system: SW-620 colon
SF-295 CNS = test system: SF-295 CNS
EKVX NSCLC = test system: EKVX NSCLC
SN12C renal = test system: SN12C renal
SK-OV-3 ovarian = test system: SK-OV-3 ovarian
OVCAR-5 ovarian = test system: OVCAR-5 ovarian
SNB-75 CNS = test system: SNB-75 CNS
HT29 colon = test system: HT29 colon
K-562 leukemia = test system: K-562 leukemia
UO-31 renal = test system: UO-31 renal
A549 NSCLC = test system: A549 NSCLC
NCI/ADR-RES ovarian = test system: NCI/ADR-RES ovarian
MDA-MB-231 breast = test system: MDA-MB-231 breast
BT-549 breast = test system: BT-549 breast
SF-268 CNS = test system: SF-268 CNS
OVCAR-8 ovarian = test system: OVCAR-8 ovarian
HOP-62 NSCLC = test system: HOP-62 NSCLC
MDA-MB-435 = test system: MDA-MB-435
TK-10 renal = test system: TK-10 renal
SK-MEL-2 melanoma = test system: SK-MEL-2 melanoma
NCI-H460 lung = test system: NCI-H460 lung
HOP-92 NSCLC = test system: HOP-92 NSCLC
NCI-H23 lung = test system: NCI-H23 lung
MALME-3M melanoma = test system: MALME-3M melanoma
UACC-257 melanoma = test system: UACC-257 melanoma
HCT-15 colon = test system: HCT-15 colon
M14 melanoma = test system: M14 melanoma
HS 578T breast = test system: HS 578T breast
A498 renal = test system: A498 renal
UACC-62 melanoma = test system: UACC-62 melanoma
OVCAR-4 ovarian = test system: OVCAR-4 ovarian
ACHN renal = test system: ACHN renal
T-47D breast = test system: T-47D breast
NCI-H226 lung = test system: NCI-H226 lung
HCC-2998 colon = test system: HCC-2998 colon
SF-539 CNS = test system: SF-539 CNS
OVCAR-3 ovarian = test system: OVCAR-3 ovarian
786-0 renal = test system: 786-0 renal
HCT-116 colon = test system: HCT-116 colon

CCCCCCCCCCCCCCCCCCOc1ccccc1CC(=O)NCC[N+](C)(C)C
GI50 (CAKI-1 renal): 4.39 µM
TGI (CAKI-1 renal): 36.7 µM
GI50 (NCI-H522 lung): 2670 nM
TGI (NCI-H522 lung): 8.24 µM
GI50 (MCF7 breast): 3.77 µM
TGI (MCF7 breast): 34.9 µM
GI50 (SK-MEL-5 melanoma): 6.59 µM
TGI (SK-MEL-5 melanoma): 45.8 µM
GI50 (SR leukemia): 2710 nM
TGI (SR leukemia): > 100 µM
GI50 (SK-MEL-28 melanoma): 10.4 µM
TGI (SK-MEL-28 melanoma): 45.4 µM
GI50 (DU-145 prostate): 4.97 µM
TGI (DU-145 prostate): 39.2 µM
GI50 (SW-620 colon): 5.8 µM
TGI (SW-620 colon): 40.8 µM
GI50 (SF-295 CNS): 5.09 µM
TGI (SF-295 CNS): 38.9 µM
GI50 (EKVX NSCLC): 18 µM
TGI (EKVX NSCLC): 66 µM
GI50 (SN12C renal): 3.67 µM
TGI (SN12C renal): 37.9 µM
GI50 (SK-OV-3 ovarian): 15.4 µM
TGI (SK-OV-3 ovarian): 35.7 µM
GI50 (OVCAR-5 ovarian): 2680 nM
TGI (OVCAR-5 ovarian): 12.8 µM
GI50 (SNB-75 CNS): 1980 nM
TGI (SNB-75 CNS): 8.9 µM
GI50 (HT29 colon): 3.09 µM
TGI (HT29 colon): 26.7 µM
GI50 (K-562 leukemia): 3.2 µM
TGI (K-562 leukemia): > 100 µM
GI50 (UO-31 renal): 17.9 µM
TGI (UO-31 renal): 80.4 µM
GI50 (A549 NSCLC): 4.91 µM
TGI (A549 NSCLC): 51.8 µM
GI50 (NCI/ADR-RES ovarian): 22.6 µM
TGI (NCI/ADR-RES ovarian): 62.6 µM
GI50 (MDA-MB-231 breast): 4.27 µM
TGI (MDA-MB-231 breast): 66.6 µM
GI50 (BT-549 breast): 3.25 µM
TGI (BT-549 breast): > 100 µM
GI50 (SF-268 CNS): 3.34 µM
TGI (SF-268 CNS): 39.9 µM
GI50 (OVCAR-8 ovarian): 5.79 µM
TGI (OVCAR-8 ovarian): 41.9 µM
GI50 (HOP-62 NSCLC): 2320 nM
TGI (HOP-62 NSCLC): 6.9 µM
GI50 (MDA-MB-435): 10.6 µM
TGI (MDA-MB-435): 55.1 µM
GI50 (TK-10 renal): 2270 nM
TGI (TK-10 renal): 6.48 µM
GI50 (SK-MEL-2 melanoma): 12.7 µM
TGI (SK-MEL-2 melanoma): 44.7 µM
GI50 (NCI-H460 lung): 3.47 µM
TGI (NCI-H460 lung): 52.4 µM
GI50 (HOP-92 NSCLC): 1920 nM
TGI (HOP-92 NSCLC): 7.16 µM
GI50 (NCI-H23 lung): 5.07 µM
TGI (NCI-H23 lung): 35.4 µM
GI50 (MALME-3M melanoma): 14.8 µM
TGI (MALME-3M melanoma): 94 µM
GI50 (UACC-257 melanoma): 23.6 µM
TGI (UACC-257 melanoma): 51.6 µM
GI50 (HCT-15 colon): 17 µM
TGI (HCT-15 colon): 57.4 µM
GI50 (M14 melanoma): 3.14 µM
TGI (M14 melanoma): > 100 µM
GI50 (HS 578T breast): 4.26 µM
TGI (HS 578T breast): > 100 µM
GI50 (A498 renal): 9.55 µM
TGI (A498 renal): 49.8 µM
GI50 (UACC-62 melanoma): 6.55 µM
TGI (UACC-62 melanoma): 62.5 µM
GI50 (OVCAR-4 ovarian): 3.11 µM
TGI (OVCAR-4 ovarian): 30 µM
GI50 (ACHN renal): 12.9 µM
TGI (ACHN renal): 49.2 µM
GI50 (T-47D breast): 7.6 µM
TGI (T-47D breast): 58.9 µM
GI50 (NCI-H226 lung): 4.4 µM
TGI (NCI-H226 lung): 42.9 µM
GI50 (HCC-2998 colon): 3.15 µM
TGI (HCC-2998 colon): 21.9 µM
GI50 (SF-539 CNS): 5.48 µM
TGI (SF-539 CNS): 37 µM
GI50 (OVCAR-3 ovarian): 3.55 µM
TGI (OVCAR-3 ovarian): 50.5 µM
GI50 (786-0 renal): 3.57 µM
TGI (786-0 renal): 78.7 µM
GI50 (HCT-116 colon): 7.58 µM
TGI (HCT-116 colon): > 100 µM
